# Experimental data published in patent US5215999A, “Quinoline derivative and antiulcer agent containing said quinoline derivative” (Otsuka Pharmaceutical Co., Ltd., priority 1990, dated 1993).
# Structures can show the parent of a compound that is named as a salt.
# Legend:
# stomach-acid secretion = experiment: Stomach-acid secretion inhibitory action on rats (histamine-stimulated, perfused stomach); type: in vivo, Wistar-type male rats; details: Rattus norvegicus, iv; 0.3, 1, 3, 10 and 30 mg/kg; histamine dihydrochloride 1 mg/kg/hr; probit method
# Protocol: (a) Stomach-Acid Secretion Inhibitory Action on Rats
# After each of Wistar-type male rats was let abstain from food for 24 hours, the pylorus thereof was bound while the rat was paralyzed with urethane (1.5 g/kg s.c.), and a stomach perfusion cannula was inserted into the rat stomach. The rat stomach was perfused with a physiological salt solution through an oral catheter. The amount of stomach-acid secretion was measured by titrating the total acidity and pH of the perfusion solution. As an acid secretion stimulant, 1 mg/kg/hr of histamine dihydrochloride was continuously injected through the femoral vein to accelerate the acid secretion. Then, the effects of a variety of compounds were studied.
# Each of test compounds as dissolved in dimethylformamide was intravenously administered to the rat in each of dosages of 0.3, 1, 3, 10 and 30 mg/kg through […].
# There was calculated an inhibition percentage of acid secretion with respect to acid secretion before administration of each of the test compounds. An ED50 value was calculated from the inhibition percentage with respect to each dosage according to a probit method.
# H^+ +K^+ ATPase = molecular target: T1, H^+ +K^+ ATPase (Sus scrofa, UniProt P19156); experiment: H+ + K+ ATPase inhibitory action; type: biochemical; details: pig stomach enzyme, protein 10 μg; pH 7.4, 37° C., 30 minutes
# T1 construct: prepared from the stomach of a pig; from tissue; host or cells: pig stomach
# Protocol: (c) H^+ +K^+ ATPase Inhibitory Action
# H^+ +K^+ ATPase (adenosinetriphosphatase)(protein: 10 μg) prepared from the stomach of a pig was added to a pipes-Tris [2-amino-2-(hydroxymethyl)-1,3-propandiol] buffer (pipes-Tris buffer)(pH 8.1) containing 2 mM piperazine N,N'-bis(2-ethane sulfonic acid). The resultant reaction solution was allowed to stand at a room temperature. Each of the test compounds was dissolved in dimethyl formamide, which was added to the H^+ +K^+ ATPase buffer such that the final concentration was 1%. The resultant reaction solution was reacted at a room temperature for 30 minutes. In the same manner, another reaction solution was prepared. Respectively added to the reaction solutions were 1 ml of a 75 mM pipes-TRIS buffer (pH 7.4) (containing 4 mM MgCl2, 4 mM Na2 ATP and 20 mM KCl) and 1 ml of a 75 mM pipes-Tris buffer (pH7.4) (containing 4 mM MgCl2 and 4 mM Na2 ATP). Thus, two kinds of samples were prepared and reacted at 37° C. for 30 minutes. Added to each of the samples was 0.3 ml of 40% trichloroacetic acid, thus completing the reaction. After the samples were subjected to centrifugal separation (3,000 rpm) for 10 minutes. The supernatant liquids were taken to produce inorganic phosphoric acids, of which amounts were measured according to a Fiske and Subbarow method [J. Biol. Chem. vol. 86,375 (1925)]. The amount of the inorganic phosphoric acid obtained from the pipes-Tris buffer containing no 20 mM KCl was deducted from the amount of the inorganic phosphoric acid obtained from the pipes-Tris buffer containing 20 mM KCl. The difference expressed in terms of unit protein per unit time was defined as an enzyme active value. The inhibition value (%) of each dosage was obtained from the control value and the enzyme active value at each dosage. Based on the inhibition value thus obtained, IC50 (the dosage of each test compound which achieves inhibition of 50%) was obtained.
# T1 sequence (P19156 2-1034 limits assumed): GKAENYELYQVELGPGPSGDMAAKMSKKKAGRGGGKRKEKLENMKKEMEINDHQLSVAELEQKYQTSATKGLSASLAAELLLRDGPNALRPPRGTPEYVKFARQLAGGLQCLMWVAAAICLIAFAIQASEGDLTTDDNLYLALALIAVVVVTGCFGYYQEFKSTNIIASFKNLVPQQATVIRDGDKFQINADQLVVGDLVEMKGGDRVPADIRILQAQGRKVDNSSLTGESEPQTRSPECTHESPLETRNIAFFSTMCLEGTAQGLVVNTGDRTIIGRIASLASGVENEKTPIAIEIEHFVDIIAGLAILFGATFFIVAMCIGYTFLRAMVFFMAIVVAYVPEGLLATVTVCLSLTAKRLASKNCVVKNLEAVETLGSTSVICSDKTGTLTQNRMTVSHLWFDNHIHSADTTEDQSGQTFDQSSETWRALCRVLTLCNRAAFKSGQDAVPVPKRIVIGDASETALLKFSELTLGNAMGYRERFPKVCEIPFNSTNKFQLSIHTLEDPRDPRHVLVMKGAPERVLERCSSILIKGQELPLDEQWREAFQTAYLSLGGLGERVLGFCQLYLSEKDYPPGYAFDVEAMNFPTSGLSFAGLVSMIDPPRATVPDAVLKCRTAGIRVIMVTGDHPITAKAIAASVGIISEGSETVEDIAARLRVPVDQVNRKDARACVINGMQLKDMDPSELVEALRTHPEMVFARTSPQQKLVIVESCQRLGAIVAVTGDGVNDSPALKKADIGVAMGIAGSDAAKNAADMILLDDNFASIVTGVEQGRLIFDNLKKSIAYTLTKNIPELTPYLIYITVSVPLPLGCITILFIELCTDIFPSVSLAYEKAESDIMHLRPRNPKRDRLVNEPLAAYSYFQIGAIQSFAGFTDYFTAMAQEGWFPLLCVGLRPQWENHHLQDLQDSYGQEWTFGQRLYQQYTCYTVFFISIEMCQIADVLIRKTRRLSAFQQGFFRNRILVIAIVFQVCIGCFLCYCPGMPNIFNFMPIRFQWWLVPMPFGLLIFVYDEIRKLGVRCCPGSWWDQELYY
# T1 sequence (P18434 whole entry partner): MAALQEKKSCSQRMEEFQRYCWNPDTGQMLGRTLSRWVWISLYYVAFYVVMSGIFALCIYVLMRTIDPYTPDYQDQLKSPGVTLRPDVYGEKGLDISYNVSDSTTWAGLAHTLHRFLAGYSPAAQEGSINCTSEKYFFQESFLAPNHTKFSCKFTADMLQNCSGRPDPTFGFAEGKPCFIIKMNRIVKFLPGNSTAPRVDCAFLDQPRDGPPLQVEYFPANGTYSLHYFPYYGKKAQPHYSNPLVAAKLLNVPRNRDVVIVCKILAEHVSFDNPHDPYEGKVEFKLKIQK
Compound,ED50 (stomach-acid secretion),IC50 (H^+ +K^+ ATPase)
"C=CCNC(=O)c1cnc2c(OC)cccc2c1Nc1ccccc1C.Cl [Test Compound 1, N-2-propenyl-8-methoxy-4-[(2-methylphenyl)amino]quinoline-3-carboxamide hydrochloride]",6.72 mg/kg,–
"C=CCNC(=O)c1cnc2c(OC)cccc2c1Nc1ccccc1CC [Test Compound 2, N-2-propenyl-4-[(2-ethylphenyl)amino]-8-methoxyquinoline-3-carboxamide hydrochloride]",–,2200 nM
"C=CCNC(=O)c1cnc2c(OC)cccc2c1Nc1ccccc1C(C)C [Test Compound 3, N-2-propenyl-4-[(2-isopropylphenyl)amino]-8-methoxyquinoline-3-carboxamide hydrochloride]",–,4900 nM
"C=CCNC(=O)c1cnc2c(OC)cccc2c1Nc1ccccc1SCCC [Test Compound 5, N-2-propenyl-8-methoxy-4-[(2-propylthiophenyl)amino]quinoline-3-carboxamide hydrochloride]",–,1600 nM
